ChEMBL document CHEMBL3885881, “DrugMatrix”

Species on record: Rattus norvegicus
Assay: DrugMatrix - Regimen: Daily Repeat
Assay type: toxicity, organism-based, Sprague-Dawley
Design: regimen Daily Repeat, gender Male, age 6-8 weeks
Settings: in vivo, po, route oral GAVAGE, vehicle .5 % CMC; for ABSOLUTE BASOPHIL / ABSOLUTE EOSINOPHIL / ABSOLUTE LYMPHOCYTE / ABSOLUTE MONOCYTE / ABSOLUTE SEGMENTED NEUTROPHIL / BASOPHIL / EOSINOPHIL / ERYTHROCYTE COUNT / HEMATOCRIT / HEMOGLOBIN / LEUKOCYTE COUNT / LYMPHOCYTE / MEAN CORPUSCULAR HEMOGLOBIN / MEAN CORPUSCULAR HEMOGLOBIN CONCENTRATION / MEAN CORPUSCULAR VOLUME / MONOCYTE / NEUTROPHIL / NUCLEATED RED BLOOD CELLS / PLATELET COUNT: tissue Blood; for ALANINE AMINOTRANSFERASE / ALBUMIN / ALKALINE PHOSPHATASE / ASPARTATE AMINOTRANSFERASE / BLOOD UREA NITROGEN / CARBON DIOXIDE / CHLORIDE / CHOLESTEROL / CREATINE PHOSPHOKINASE / CREATININE / GLUCOSE / LACTATE DEHYDROGENASE / LIPASE / PHOSPHORUS / POTASSIUM / SODIUM / TOTAL BILIRUBIN / TOTAL PROTEIN / URIC ACID: tissue Plasma
[1] = 0 mg/kg, 72 h, dose level Control, time 3 day
[2] = 0 mg/kg, 120 h, dose level Control, time 5 day
[3] = 10 mg/kg, 72 h, dose level Low, time 3 day

## O=C1CN=C(c2ccccc2Cl)c2cc([N+](=O)[O-])ccc2N1 [CLONAZEPAM]
[1]
  ABSOLUTE BASOPHIL: 0 CELLS/uL
  ABSOLUTE EOSINOPHIL: 0 CELLS/uL
  ABSOLUTE LYMPHOCYTE: 12191.17 CELLS/uL
  ABSOLUTE MONOCYTE: 183.17 CELLS/uL
  ABSOLUTE SEGMENTED NEUTROPHIL: 1192.33 CELLS/uL
  BASOPHIL: 0%
  EOSINOPHIL: 0%
  ERYTHROCYTE COUNT: 5.51 x10E6/uL
  HEMATOCRIT: 35.45%
  HEMOGLOBIN: 13.82 G/DL
  LEUKOCYTE COUNT: 13.57 x10E3/uL
  LYMPHOCYTE: 89.83%
  MEAN CORPUSCULAR HEMOGLOBIN: 25.1 pg
  MEAN CORPUSCULAR HEMOGLOBIN CONCENTRATION: 38.98 G/DL
  MEAN CORPUSCULAR VOLUME: 64.42 fL
  MONOCYTE: 1.33%
  NEUTROPHIL: 8.83%
  NUCLEATED RED BLOOD CELLS: 0 /100WBC
  PLATELET COUNT: 1118.17 x10E3/uL
  ALANINE AMINOTRANSFERASE: 55 u/L
  ALBUMIN: 4.15 G/DL
  ALKALINE PHOSPHATASE: 449.5 u/L
  ASPARTATE AMINOTRANSFERASE: 112.83 u/L
  BLOOD UREA NITROGEN: 17.33 mg/dL
  CARBON DIOXIDE: 29.5 mmol/L
  CHLORIDE: 101 MEQ/L
  CHOLESTEROL: 70 mg/dL
  CREATINE PHOSPHOKINASE: 1325.83 u/L
  CREATININE: 0.18 mg/dL
  GLUCOSE: 171.5 mg/dL
  LACTATE DEHYDROGENASE: 386 u/L
  LIPASE: 10 u/L
  PHOSPHORUS: 11.57 mg/dL
  POTASSIUM: 6.21 MEQ/L
  SODIUM: 141.65 MEQ/L
  TOTAL BILIRUBIN: 0.15 mg/dL
  TOTAL PROTEIN: 5.75 G/DL
  URIC ACID: 1.28 mg/dL
[2]
  ABSOLUTE BASOPHIL: 0 CELLS/uL
  ABSOLUTE EOSINOPHIL: 138.17 CELLS/uL
  ABSOLUTE LYMPHOCYTE: 13283.17 CELLS/uL
  ABSOLUTE MONOCYTE: 303.83 CELLS/uL
  ABSOLUTE SEGMENTED NEUTROPHIL: 1308.17 CELLS/uL
  BASOPHIL: 0%
  EOSINOPHIL: 1%
  ERYTHROCYTE COUNT: 5.32 x10E6/uL
  HEMATOCRIT: 33.8%
  HEMOGLOBIN: 13.63 G/DL
  LEUKOCYTE COUNT: 15.03 x10E3/uL
  LYMPHOCYTE: 88.33%
  MEAN CORPUSCULAR HEMOGLOBIN: 25.68 pg
  MEAN CORPUSCULAR HEMOGLOBIN CONCENTRATION: 40.35 G/DL
  MEAN CORPUSCULAR VOLUME: 63.67 fL
  MONOCYTE: 1.83%
  NEUTROPHIL: 8.83%
  NUCLEATED RED BLOOD CELLS: 0 /100WBC
  PLATELET COUNT: 1097.5 x10E3/uL
  ALANINE AMINOTRANSFERASE: 54.5 u/L
  ALBUMIN: 4.27 G/DL
  ALKALINE PHOSPHATASE: 337 u/L
  ASPARTATE AMINOTRANSFERASE: 94.67 u/L
  BLOOD UREA NITROGEN: 17 mg/dL
  CARBON DIOXIDE: 28.33 mmol/L
  CHLORIDE: 101.5 MEQ/L
  CHOLESTEROL: 71.33 mg/dL
  CREATINE PHOSPHOKINASE: 628.17 u/L
  CREATININE: 0.19 mg/dL
  GLUCOSE: 177.83 mg/dL
  LACTATE DEHYDROGENASE: 500.5 u/L
  LIPASE: 9.5 u/L
  PHOSPHORUS: 12.3 mg/dL
  POTASSIUM: 5.63 MEQ/L
  SODIUM: 143.03 MEQ/L
  TOTAL BILIRUBIN: 0.2 mg/dL
  TOTAL PROTEIN: 6.02 G/DL
  URIC ACID: 1.5 mg/dL
[3]
  ABSOLUTE BASOPHIL: 0 CELLS/uL
  ABSOLUTE EOSINOPHIL: 0 CELLS/uL
  ABSOLUTE LYMPHOCYTE: 12266.67 CELLS/uL
  ABSOLUTE MONOCYTE: 135.33 CELLS/uL
  ABSOLUTE SEGMENTED NEUTROPHIL: 664.67 CELLS/uL
  BASOPHIL: 0%
  EOSINOPHIL: 0%
  ERYTHROCYTE COUNT: 5.48 x10E6/uL
  HEMATOCRIT: 35.23%
  HEMOGLOBIN: 13.73 G/DL
  LEUKOCYTE COUNT: 13.07 x10E3/uL
  LYMPHOCYTE: 93.33%
  MEAN CORPUSCULAR HEMOGLOBIN: 25.1 pg
  MEAN CORPUSCULAR HEMOGLOBIN CONCENTRATION: 38.97 G/DL
  MEAN CORPUSCULAR VOLUME: 64.3 fL
  MONOCYTE: 1.33%
  NEUTROPHIL: 5.33%
  NUCLEATED RED BLOOD CELLS: 0 /100WBC
  PLATELET COUNT: 1157.67 x10E3/uL
  ALANINE AMINOTRANSFERASE: 58.33 u/L
  ALBUMIN: 4.1 G/DL
  ALKALINE PHOSPHATASE: 310 u/L
  ASPARTATE AMINOTRANSFERASE: 85.33 u/L
  BLOOD UREA NITROGEN: 17.67 mg/dL
  CARBON DIOXIDE: 27.67 mmol/L
  CHLORIDE: 101.67 MEQ/L
  CHOLESTEROL: 69.33 mg/dL
  CREATINE PHOSPHOKINASE: 333.33 u/L
  CREATININE: 0.16 mg/dL
  GLUCOSE: 163 mg/dL
  LACTATE DEHYDROGENASE: 104.33 u/L
  LIPASE: 10 u/L
  PHOSPHORUS: 11.3 mg/dL
  POTASSIUM: 6.13 MEQ/L
  SODIUM: 142.3 MEQ/L
  TOTAL BILIRUBIN: 0.1 mg/dL
  TOTAL PROTEIN: 5.6 G/DL
  URIC ACID: 1.73 mg/dL
